Some test systems named below: A549; NCI-H226; EKVX; MDA-MB-231; HL-60; HCT-15; IGROV-1; OVCAR-5; RXF 393; NCI-H522; UO-31; SK-MEL-2; SF-539; OVCAR-4; SW-620; MDA-N; HT-29; UACC-257; U-251; KM12.
What all share (experiment): DTP human tumour cell line panel, 48 h

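Protocol summary: plate cells (96-well), add compound at 5 concentrations, incubate 48 h, interpolate endpoints linearly. GI50 marks 50% less growth.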 Calls of active or inactive are those of the source. Rule as the data show it: active = GI50 up to about 1.1 µM and inactive = higher. Some results are limits rather than exact numbers.

Regarding `C=CC[C@@]12CCC(=O)C=C1CCCC2=O`, the GI50 in the assay on A549 is > 100 µM (inactive); in the assay with NCI-H226 it was > 100 µM (inactive); in the assay on EKVX, > 100 µM (inactive); in the assay on MDA-MB-231, > 100 µM (inactive); with HL-60, > 100 µM (inactive); in the assay on HCT-15 it was above 100 µM. Besides, the GI50 in the assay on IGROV-1, with OVCAR-5, in the assay on RXF 393, in the assay with NCI-H522, with UO-31 and in the assay with SK-MEL-2 was > 100 µM (inactive) in each case. Also, the GI50 in the assay on SF-539, in the assay on OVCAR-4, with SW-620, in the assay with MDA-N, in the assay on HT-29 and with UACC-257 was > 100 µM (inactive) in each case. The GI50 in the assay on U-251 was > 100 µM (inactive).
Consider `O=C(O)C1C2C=CC(O2)C1C(=O)NCc1ccncc1` (stereo not drawn), for which the GI50 in the assay on A549, in the assay with NCI-H226, in the assay on EKVX, with MDA-MB-231, in the assay with HL-60 and in the assay with IGROV-1 was > 100 µM (inactive) throughout. For the same compound, the GI50 in the assay on OVCAR-5, in the assay on RXF 393, in the assay with NCI-H522, with UO-31, in the assay with SK-MEL-2 and in the assay with SF-539 was > 100 µM (inactive) each time. Besides, the GI50 with OVCAR-4, with SW-620, in the assay with MDA-N, in the assay on KM12, in the assay with HT-29 and in the assay with UACC-257 was > 100 µM (inactive) each time. Also, the GI50 in the assay with U-251 was > 100 µM (inactive).
For the compound `Cc1nc(-c2cc3c(ccc4ccccc43)oc2=O)cs1`, the GI50 in the assay with A549 was > 100 µM (inactive); in the assay on NCI-H226, 66.4 µM (inactive); with EKVX it was 35.8 µM (inactive); in the assay on MDA-MB-231, 70.5 µM (inactive); in the assay on HL-60 it was > 100 µM (inactive); with HCT-15, above 100 µM. The GI50 was 21.5 µM (inactive) in the assay on IGROV-1; > 100 µM (inactive) in the assay with OVCAR-5; 35.8 µM (inactive) in the assay on RXF 393; 35.2 µM (inactive) in the assay with NCI-H522; 46.3 µM (inactive) in the assay with UO-31; > 100 µM (inactive) in the assay with SK-MEL-2. Moreover, the GI50 in the assay on SF-539 is 43.3 µM (inactive); in the assay on OVCAR-4 it was 37.7 µM (inactive); with SW-620 it was > 100 µM (inactive); with MDA-N it was > 100 µM (inactive); in the assay on KM12 it was > 100 µM (inactive); in the assay on HT-29 it was > 100 µM (inactive). In addition, the GI50 in the assay on UACC-257 is > 100 µM (inactive); with U-251, 57.9 µM (inactive).
`NCCOCC(N)C(=O)O` (stereo not drawn): the GI50 is > 100 µM (inactive) in the assay on A549; > 100 µM (inactive) in the assay with NCI-H226; > 100 µM (inactive) in the assay with EKVX; > 100 µM (inactive) with MDA-MB-231; > 100 µM (inactive) with HL-60; above 100 µM in the assay with HCT-15. Also, the GI50 with IGROV-1, in the assay with OVCAR-5, in the assay on RXF 393, in the assay with NCI-H522, in the assay with UO-31 and in the assay on SK-MEL-2 was > 100 µM (inactive) each time. Also, the GI50 in the assay on SF-539, in the assay with OVCAR-4, in the assay on SW-620, in the assay with MDA-N, with KM12 and in the assay with HT-29 was > 100 µM (inactive) in each case. For the same compound, the GI50 with UACC-257 and in the assay on U-251 was > 100 µM (inactive) throughout.
Regarding `COC(=O)/N=[N+](\[O-])C(c1ccc(OC)cc1)C1CCCCC1` (stereo not drawn), the GI50 is 5.07 µM (inactive) in the assay with A549; 5.16 µM (inactive) in the assay on NCI-H226; 0.991 µM (active) in the assay with EKVX; 3 µM (inactive) in the assay with MDA-MB-231; 0.787 µM (active) in the assay on HL-60; 1.26 µM in the assay with HCT-15. The GI50 with IGROV-1 is 4.18 µM (inactive); in the assay with OVCAR-5, 2.58 µM (inactive); with RXF 393, 9.18 µM (inactive); in the assay with NCI-H522, 1.03 µM (active); in the assay with UO-31, 5.82 µM (inactive); with SK-MEL-2, 13.3 µM (inactive). Further, the GI50 in the assay on SF-539 was 12.3 µM (inactive); in the assay with OVCAR-4 it was 0.802 µM (active); in the assay on SW-620, 3.4 µM (inactive); in the assay on MDA-N it was 2.03 µM (inactive); in the assay on KM12, 2.39 µM (inactive); with HT-29, 1.29 µM (inactive). Moreover, the GI50 was 1.47 µM (inactive) in the assay on UACC-257 and 1.03 µM (active) with U-251.
Regarding `Cc1ncc([N+](=O)[O-])n1CCNC(=O)CCCn1cnc([N+](=O)[O-])n1`, the GI50 in the assay on A549 was > 78.3 µM (inactive); with NCI-H226, > 100 µM (inactive); in the assay with EKVX, > 31.6 µM (inactive); in the assay with MDA-MB-231, > 100 µM (inactive); with HL-60, > 100 µM (inactive); in the assay on HCT-15, above 76.6 µM. The GI50 in the assay with IGROV-1 was > 100 µM (inactive); with OVCAR-5, > 100 µM (inactive); in the assay with RXF 393 it was > 100 µM (inactive); in the assay with NCI-H522 it was > 100 µM (inactive); in the assay with UO-31, > 100 µM (inactive); in the assay with SK-MEL-2 it was > 90.8 µM (inactive). The GI50 in the assay on SF-539 was > 100 µM (inactive); with OVCAR-4, > 100 µM (inactive); with SW-620, > 71.8 µM (inactive); with MDA-N it was > 100 µM (inactive); in the assay on KM12, > 100 µM (inactive); in the assay on HT-29, > 100 µM (inactive). In addition, the GI50 in the assay with UACC-257 and with U-251 was > 100 µM (inactive) throughout.
Turning to `Oc1cc2c3c(c1)c1cc4c(cc1c[n+]3CC2)OCO4`, the GI50 was 5.71 µM (inactive) in the assay with A549; 2.69 µM (inactive) in the assay with NCI-H226; 7.73 µM (inactive) with EKVX; 2.79 µM (inactive) in the assay with MDA-MB-231; 3.97 µM (inactive) in the assay on HL-60; 13.6 µM in the assay with HCT-15. The GI50 with IGROV-1 was 2.4 µM (inactive); in the assay on OVCAR-5, 45.6 µM (inactive); in the assay on RXF 393, 24.5 µM (inactive); with NCI-H522, 0.492 µM (active); in the assay with UO-31, 5.42 µM (inactive); in the assay on SK-MEL-2, 9.68 µM (inactive). Also, the GI50 is 2.28 µM (inactive) in the assay with SF-539; 3.64 µM (inactive) in the assay on OVCAR-4; 2.86 µM (inactive) with SW-620; 8.63 µM (inactive) in the assay with MDA-N; 1.82 µM (inactive) in the assay on KM12; 4.6 µM (inactive) in the assay on HT-29. The GI50 in the assay with UACC-257 was 8.83 µM (inactive); in the assay with U-251, 0.971 µM (active).

What is called GI50 is the concentration giving 50% growth inhibition.

The values above are taken from ChEMBL document CHEMBL1201862, “PubChem BioAssay data set” (2004).
